From patent US7648824B2, “Method of sequencing DNA” (Qiagen GmbH, priority 2000, dated 2010)
Entries after “also recorded” stand apart in the source; their conditions may differ.

Legend:
[1] = molecular target: T1, luciferase (Photinus pyralis, UniProt P08659); settings: literature report, Ford et al., 1998; cited from earlier work
T1 construct: purchased BioThema, Dalaro, Sweden

[2] = molecular target: T1, luciferase; assay: Preincubation of Pyrosequencing reaction mixture with nucleotide, signal intensity; format: biochemical; settings: preincubation with 5, 10 or 20 μl nucleotide for 10 minutes, compared with 0 μl
Procedure: (§1) In this example, the inhibitory effect of dATPαS on a PPi-based sequencing reaction with ELIDA detection (known as Pyrosequencing) was investigated by preincubating the reaction mixture in the absence of template with varying amounts of the normal (i.e. racemic) dATPαS (containing both Rp and Sp isomers), or the pure Sp isomer of dATPαS. After preincubation, template was added and a normal “Pyrosequencing™”, reaction was carried out.
(§2) The “normal” dATPαS was taken from the PSQ 96 SNP Reagent kit supplied by Pyrosequencing AB (Uppsala, SE). The pure Rp and Sp isomers were purchased from Biolog Life Science (Bremen, Germany). The reaction mixture also included Enzyme mix (DNA polymerase, ATP-sulphurylase, apyrase and luciferase) and Substrate mix (luciferin and APS), from the PSQ 96 SNP Reagent kit supplied by Pyrosequencing AB. The template was an oligonucleotide (interactiva, Ulm, Germany) from which the following sequence could be read after annealing of a sequencing primer: […].
(§3) The pure isomer samples were diluted to the same concentration as the dATPαS in the PSQ 96 SNP Reagent kit. For preincubation, 0, 5, 10 or 20 μl of each A-sample (normal dATPαS or the Rp or Sp isomer) was added to a mixture containing 5 μl Enzyme mix, 5 μl Substrate mix in a total volume of 45 μl. The reaction was carried out in the 96 well plate delivered with the PSQ 96 SNP Reagent kit. […]

[3] = tested on: Enzyme mix (DNA polymerase, ATP-sulphurylase, apyrase and luciferase); assay: Preincubation of Pyrosequencing reaction mixture with nucleotide, then PPi-based sequencing with ELIDA detection; format: biochemical; settings: for inhibition of the sequencing reaction: preincubation with 5, 10 or 20 μl nucleotide for 10 minutes at room temperature without template, compared with 0 μl; for effect of preincubation on the sequencing reaction: similar experiment, nucleotides from prototype PSQ 96 SNP Reagent kit, 2 pmol template, control 1×TE, results not shown
Procedure: as §1, §2
The pure isomer samples were diluted to the same concentration as the dATPαS in the PSQ 96 SNP Reagent kit. For preincubation, 0, 5, 10 or 20 μl of each A-sample (normal dATPαS or the Rp or Sp isomer) was added to a mixture containing 5 μl Enzyme mix, 5 μl Substrate mix in a total volume of 45 μl. The reaction was carried out in the 96 well plate delivered with the PSQ 96 SNP Reagent kit. The reaction was incubated at room temperature, in the dark for 10 minutes. After this, […] in 5 μl annealed oligonucleotide template was added to each well and the plate was transferred […] the PSQ 96 instrument, where a normal “Pyrosequencing™” reaction was carried out (omitting addition of Enzyme and Substrate mixes).
A similar experiment was also performed where the preincubation was carried out comparing “normal” dATPαS with dCTP, dGTP or dTTP, all from a prototype to the PSQ 96 SNP Reagent kit. As control, only 1×TE (dilution buffer for the dNTPs) was added. The template was the same as above, but 2 pmol were added to each well.

[4] = molecular target: T1, luciferase; assay: Model system simulating PPi-based sequencing: nucleotide plus ATP added to luciferase/apyrase/substrate mixture, light signal height; format: biochemical; settings: for luciferase activity (signal intensity, height of ascending curve): 50 additions of nucleotide + 2 μM ATP in 50 minutes, 100 ng luciferase, 50 mU apyrase, room temperature
Procedure: (§4) In this Example a series of 5 experiments were carried out to examine the inhibitory effect of each of the 5 nucleotides (dATP, dATPαS, dCTP, dGTP and dTTP) on the enzymes apyrase and luciferase. A model system was used which simulated the effects of these enzymes in a PPi-based sequencing reaction. Each nucleotide was added to the luciferase/apyrase/substrate mixture, along with ATP (to provide a substrate for luciferase), and the effect of each nucleotide addition on the enzymes was monitored by observing the light signals generated from the luciferase reaction.
(§5) The reactions were performed at room temperature in a volume of 50 μl on an automated prototype Pyrosequencer instrument (kindly supplied by Pyrosequencing AB, Uppsala, Sweden). The reaction mixture contained: 50 mU apyrase (Sigma Chemical Co., USA), 100 ng purified luciferase (BioThema, Dalaro, Sweden), 0.1 M Tris-acetate (pH 7.75), 0.5 mM EDTA, 5 mM magnesium acetate, 0.1% bovine serum albumin, 1 mM dithiothreitol, 0.4 mg/ml polyvinylpyrrolidone (360 000), and 100 μg/ml D-luciferin (BioThema). An ATP concentration of 2 μM was added to different nucleotides (dATP, dATPαS, dCTP, dGTP and dTTP), as shown in FIGS. 1 to 5 to follow the activity of luciferase and apyrase. For investigation of the effect of Shrimp Alkaline Phosphatase (Amersham Pharmacia Biotech, Uppsala, Sweden), two units of this enzyme were added to the reaction mixture—see further below. In total, 50 additions of nucleotide and ATP mixture were performed in 50 minutes. The output of light resulting from nucleotide incorporation was detected by a CCD-camera. The data was obtained in Excel format.

[5] = molecular target: T2, apyrase (Solanum tuberosum, UniProt P80595); assay: Preincubation of Pyrosequencing reaction mixture with nucleotide, signal width; format: biochemical; settings: preincubation with 5, 10 or 20 μl nucleotide for 10 minutes, compared with 0 μl
T2 construct: purchased Sigma Chemical Co., USA
T2 sequence (P80595 1-454): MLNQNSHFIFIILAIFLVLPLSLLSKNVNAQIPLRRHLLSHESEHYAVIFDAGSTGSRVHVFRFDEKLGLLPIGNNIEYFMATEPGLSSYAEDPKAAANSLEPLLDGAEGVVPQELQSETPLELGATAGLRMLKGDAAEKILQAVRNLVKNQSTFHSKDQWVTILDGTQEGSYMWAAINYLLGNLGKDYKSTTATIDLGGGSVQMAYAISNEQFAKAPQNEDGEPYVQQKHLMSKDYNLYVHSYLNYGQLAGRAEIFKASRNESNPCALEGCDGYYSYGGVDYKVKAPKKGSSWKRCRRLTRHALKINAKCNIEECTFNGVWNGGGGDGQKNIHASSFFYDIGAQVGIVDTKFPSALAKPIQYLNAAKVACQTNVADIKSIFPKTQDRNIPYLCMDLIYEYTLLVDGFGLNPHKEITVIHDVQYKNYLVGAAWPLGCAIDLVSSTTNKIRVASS
Procedure: as §1, §2, §3

[6] = molecular target: T2, apyrase; assay: Model system simulating PPi-based sequencing: nucleotide plus ATP added to luciferase/apyrase/substrate mixture, slope of descending curve / signal width; format: biochemical; settings: for apyrase activity (slope of descending curve, signal width): 50 additions of nucleotide + 2 μM ATP in 50 minutes, 100 ng luciferase, 50 mU apyrase, room temperature
Procedure: as §4, §5

[7] = 0.7 mM dATPαS + 2 μM ATP, 50 cycles, 2 U alkaline phosphatase added

T1 sequence (P08659 whole entry): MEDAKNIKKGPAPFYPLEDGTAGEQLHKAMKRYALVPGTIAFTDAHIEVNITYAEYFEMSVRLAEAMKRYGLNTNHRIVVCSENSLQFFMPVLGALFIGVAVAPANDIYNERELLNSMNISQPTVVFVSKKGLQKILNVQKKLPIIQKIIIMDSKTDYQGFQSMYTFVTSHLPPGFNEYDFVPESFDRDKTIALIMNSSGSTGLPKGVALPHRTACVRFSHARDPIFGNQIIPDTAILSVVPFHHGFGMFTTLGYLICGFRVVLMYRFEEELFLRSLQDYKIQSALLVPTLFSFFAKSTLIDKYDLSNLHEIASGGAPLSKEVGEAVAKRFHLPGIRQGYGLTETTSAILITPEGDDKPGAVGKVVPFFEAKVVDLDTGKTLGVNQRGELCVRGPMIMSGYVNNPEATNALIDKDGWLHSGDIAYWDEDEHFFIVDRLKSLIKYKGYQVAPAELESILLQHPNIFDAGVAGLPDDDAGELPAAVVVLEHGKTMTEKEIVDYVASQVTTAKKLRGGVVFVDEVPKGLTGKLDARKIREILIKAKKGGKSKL

| Compound | inhibition of the sequencing reaction [3] | effect of preincubation on the sequencing reaction [3] | luciferase activity (signal intensity, height of ascending curve) [4] | apyrase activity (slope of descending curve, signal width) [6] | also measured |
| --- | --- | --- | --- | --- | --- |
| Nc1ncnc2c1ncn2[C@H]1C[C@H](O)[C@@H](COP(=O)(O)O)O1 [dAMP] |  |  |  |  | inhibition of luciferase [1]: inhibits luciferase |
| Nc1ncnc2c1ncn2[C@H]1C[C@H](O)[C@@H](COP(O)(=S)OP(=O)(O)OP(=O)(O)O)O1 (stereo partly drawn) [dATPαS, deoxyadenosine α-thiotriphosphate] | progressively severe inhibition | severe negative effect | relatively linear decrease in signal intensity | drastically inhibited in later cycles | luciferase inhibition (signal intensity, peak height) [2]: Some loss of signal intensity; luciferase activity (signal intensity) in the presence of alkaline phosphatase [4, 7]: no inhibition of luciferase; decrease in signal intensity after 50 cycles, less than that obtained with dATP ([4]; 0.7 mM nucleotide + 2 μM ATP, after 50 cycles, compared with dATP (FIG. 1)): 50%; apyrase inhibition (signal width, signal definition) [5]: apyrase inhibition is particularly occurring; apyrase activity (signal width) in the presence of alkaline phosphatase [6, 7]: lack of apyrase inhibition |
| Nc1ncnc2c1ncn2[C@H]1C[C@H](O)[C@@H](COP(=O)(O)OP(=O)(O)OP(=O)(O)O)O1 [dATP, deoxyadenosine triphosphate] |  |  | relatively linear decrease in signal intensity |  |  |
| Nc1ncnc2c1ncn2[C@H]1C[C@H](O)[C@@H](COP(O)(=S)OP(=O)(O)OP(=O)(O)O)O1 (single isomer, unassigned) [Rp isomer] | Even more pronounced inhibition; also recorded: severe effect on all enzymes involved in the ELIDA detection |  |  |  | luciferase inhibition (signal intensity, peak height) [2]: signal intensity is decreased; apyrase inhibition (signal width, signal definition) [5]: increased signal width |
| Cc1cn([C@H]2C[C@H](O)[C@@H](COP(=O)(O)OP(=O)(O)OP(=O)(O)O)O2)c(=O)[nH]c1=O [dTTP, deoxythymidine triphosphate] |  | no negative effect | do not inhibit luciferase or apyrase | do not inhibit luciferase or apyrase |  |
| Nc1ccn([C@H]2C[C@H](O)[C@@H](COP(=O)(O)OP(=O)(O)OP(=O)(O)O)O2)c(=O)n1 [dCTP, deoxycytidine triphosphate] |  | no negative effect | do not inhibit luciferase or apyrase | do not inhibit luciferase or apyrase |  |
| Nc1ncnc2c1ncn2[C@H]1C[C@H](O)[C@@H](COP(O)(=S)OP(=O)(O)OP(=O)(O)O)O1 (single isomer, unassigned) [Sp isomer] | significantly reduced |  |  |  |  |
| Nc1nc2c(ncn2[C@H]2C[C@H](O)[C@@H](COP(=O)(O)OP(=O)(O)OP(=O)(O)O)O2)c(=O)[nH]1 [dGTP, deoxyguanosine triphosphate] |  | no negative effect | do not inhibit luciferase or apyrase | do not inhibit luciferase or apyrase |  |
